Publication PMC7415810, “A novel nucleolin-binding peptide for Cancer Theranostics” (Theranostics, 2020)

Key:
[1] = test system: PI3K/Akt phosphorylation in MDA-MB-231 cells; experiment: Immunoblot analysis of PI3K/Akt signaling; type: cell-based, human; details: AGM-330 10, 50, 100 μM, anti-NCL antibody 20, 50 μg/mL
Protocol: Cells were washed with PBS and lysed on ice for 30 min. Protein extracts were mixed with loading buffer, and boiled at 100 °C for 5 min. A total volume of 50 µl of the denatured protein samples were loaded on 10% gels. A voltage of 80 V was applied to samples and then adjusted to 120 V when protein reached the separation gel. Next, protein was transferred to PVDF membranes for 2 h at 4 °C. PVDF membranes were washed with TBS-T 3 times, and blocked with skim milk for 1 h at room temperature. Primary antibodies were used to detect AKT (1:1000; Abcam), p-AKT (1:1000; Abcam), PI3K (1:1000; Abcam), p-PI3K (1:1000; Abcam). Membranes were treated with primary antibody overnight at 4 °C, washed with TBS-T, and incubated with secondary antibody for 1 h at room temperature. Membranes were washed and developed.
Figure S8. A-D, Western blot analysis of PI3K/Akt signaling in MDA-MB-231 cells stimulated by increasing
concentrations of an anti-NCL antibody and AGM-330. After treatment with the anti-NCL antibody (A,B) or
AGM-330 (C,D), the protein levels of p-PI3K, PI3K, p-Akt and Akt were assessed by immunoblot analysis. The

[2] = test system: MCF-7; details: read-out: IC50, MCF-7; 48 h treatment, WST-1
Protocol: (§1) Cancer and normal cells (1 × 10^4 cells/well) were seeded in 96-well plates, incubated for 24 h, and then treated with increasing concentrations of AGM-330, PTX, and AGM-330-PTX for 48 h. Cell viability was assessed by the CellVia WST-1 assay (Young In Frontier) according to the manufacturer's instructions. The numbers of viable cells were measured at a wavelength of 450 nm using a VersaMax ELISA plate reader (Molecular Devices, San Jose, CA, USA).
(§2) Figure S3. A-C, Cancer and normal cells (1 × 10^4 cells/well) were seeded in 96-well plates. After 24 h of incuba-tion, the cells were treated with an increasing concentration of dimeric or tetrameric AGM-330 for 48 h. The viability of cells grown in 0 % FBS (A), 5 % FBS (B) or 10 % FBS (C) was assessed by a CellVia WST-1 assay (Young In Frontier, Seoul, Korea) according to the manufacturer’s instruction. The numbers of viable cells were measured at a wavelength of 450 nm using an VersaMax ELISA plate reader (Molecular Devices). D, E, Binding specificity of AGM-330. A whole-cell binding assay was performed to determine the cell binding of AGM-330 in 1 % FBS (D) or 5 % FBS (E). Scale bar, 200 μm.

[3] = test system: HCT-116; details: read-out: IC50, HCT-116; 48 h treatment, WST-1
Protocol: as §1, §2

[4] = test system: HT-29; details: read-out: IC50, HT-29; 48 h treatment, WST-1
Protocol: as §1, §2

[5] = test system: CCD-18Co; details: read-out: IC50, CCD-18Co; 48 h treatment, WST-1
Protocol: as §1, §2

[6] = test system: MCF-10A; experiment: Whole-cell binding assay on OBOC peptide beads; type: cell-based, human; parameters: key: ++++: very strong binding (>40 cells per bead); +++: strong binding (30 -20 cells per bead); ++: moderate binding (20 - 10 cells per bead); +: weak binding (5-10 cells per bead); -: no binding; details: peptide on TentaGel beads incubated with cells at 10^6 cells/ml; repeated 3 times
Protocol: (§3) The beads were washed extensively with double-distilled water and phosphate-buffered saline (PBS; Welgene Inc., Korea) before screening. Cancer and normal cells were detached from culture dishes with trypsin/EDTA (Gibco), washed with their corresponding culture medium, resuspended at 10^6 cells/ml, and incubated with OBOC beads in Petri dishes in a humidified CO2 incubator at 37 °C with shaking (60 rpm). Beads bound by cells appeared under a microscope as rosettes in which a central bead was covered by one or more layers of cells. The positive beads were picked with a pipette under an inverted microscope, treated with guanidine-HCL (8 M, 20 min) to remove cells and proteins on the bead surface, and subjected to a second round of screening with normal breast epithelial cells to eliminate false positive binding.
(§4) Note : Semiquantitative relative binding activity: “++++” very strong binding (>40 cells per bead), “+++” strong binding (30
(§5) -20 cells per bead), “+ +” moderate binding (20 - 10 cells per bead), “+” weak binding (5-10 cells per bead), “-” no binding. […]
(§6) Figure S1. A, Steps performed in peptide library synthesis and screening. 1, The split-mix synthesis method was performed to construct the combinatorial OBOC libraries. […]
(§7) sized. 3, OBOC libraries were incubated with cancer cells in a CO2 incubator. 4, Beads carrying ligands with an affinity for cell surface molecules became covered with cells. 5, The positive beads were picked with a pipette under an inverted microscope. 6, The peptide sequences for positive beads were determined by Edman microse - […]
(§8) peptide libraries. B, The binding specificities of the peptides against cancer cell and normal cells were deter- […]
(§9) breast and colorectal cancer cells and normal breast and colorectal cells were re-suspended at 10^6 cells/ml and incubated with beads. All experiments were repeated 3 times. Scale bar, 200 μm.

[7] = test system: MDA-MB-231; experiment: Whole-cell binding assay on OBOC peptide beads; type: cell-based, human; details: peptide on TentaGel beads incubated with cells at 10^6 cells/ml; repeated 3 times
Protocol: as §3, §4, §5, §6, §7, §8, §9

[8] = in vivo; details: mouse, iv
Protocol: After 15 min of centrifugation at 5,000 rpm and 4 °C, the plasma was obtained and stored at -80 °C. Plasma peptide concentrations were quantified by ELISA, and pharmacokinetic profiles were analyzed using Phoenix WinNonlin 8.1 (Pharsight Corporation, Mountain View, CA, USA). The area under the plasma concentration-time curve (AUC), distribution half-time (T1/2), maximum plasma concentration (Cmax) and time required to reach maximum plasma concentration (Tmax) values were directly determined from the experimental data. […]
bated at 37 °C for 0, 3, 6, 9, and 24 h. The portion of serum-treated peptide remaining was determined by calcu-lating the height of the respective elution peak in analytical-HPLC and comparing it with control without incuba- […]
Plasma peptide concentrations were quantified by ELISA, and pharmacokinetic profiles were analyzed using Phoenix WinNonlin 8.1 (Pharsight Corporation, Mountain View, CA, USA). The data are presented as the means ± standard deviation.

[9] = test system: MCF-10A cells; experiment: cells; details: read-out: IC50, MCF-10A cells; 48 h treatment, WST-1
Protocol: as §1, §2

[10] = test system: MDA-MB-231 cells; experiment: cells; details: read-out: IC50, MDA-MB-231 cells; 48 h treatment, WST-1
Protocol: as §1, §2

CSCC[C@H](NC(=O)[C@H](C)NC(=O)CNC(=O)[C@H](Cc1c[nH]cn1)NC(=O)[C@@H](N)CCCNC(=N)N)C(=O)N[C@H](C(=O)N[C@@H](Cc1ccc(O)cc1)C(=O)N[C@@H](CC(C)C)C(=O)N[C@@H](CCCCN)C(=O)NCCOCCOCCOCCOCCOCCOCCOCCOCCOCCOCCOCCOCCC(=O)NCCCC[C@H](NC(=O)CCOCCOCCOCCOCCOCCOCCOCCOCCOCCOCCOCCOCCNC(=O)[C@H](CCCCN)NC(=O)[C@H](CC(C)C)NC(=O)[C@H](Cc1ccc(O)cc1)NC(=O)[C@@H](NC(=O)[C@H](CCSC)NC(=O)[C@H](C)NC(=O)CNC(=O)[C@H](Cc1c[nH]cn1)NC(=O)[C@@H](N)CCCNC(=N)N)C(C)C)C(=O)NCCCC[C@H](NC(=O)[C@H](CCCCNC(=O)CCOCCOCCOCCOCCOCCOCCOCCOCCOCCOCCOCCOCCNC(=O)[C@H](CCCCN)NC(=O)[C@H](CC(C)C)NC(=O)[C@H](Cc1ccc(O)cc1)NC(=O)[C@@H](NC(=O)[C@H](CCSC)NC(=O)[C@H](C)NC(=O)CNC(=O)[C@H](Cc1c[nH]cn1)NC(=O)[C@@H](N)CCCNC(=N)N)C(C)C)NC(=O)CCOCCOCCOCCOCCOCCOCCOCCOCCOCCOCCOCCOCCNC(=O)[C@H](CCCCN)NC(=O)[C@H](CC(C)C)NC(=O)[C@H](Cc1ccc(O)cc1)NC(=O)[C@@H](NC(=O)[C@H](CCSC)NC(=O)[C@H](C)NC(=O)CNC(=O)[C@H](Cc1c[nH]cn1)NC(=O)[C@@H](N)CCCNC(=N)N)C(C)C)C(=O)N[C@@H](CS)C(=O)O)C(C)C [AGM-330]
effect on PI3K/Akt phosphorylation [1]: did not suppress
IC50 [2]: > 100 µM
IC50 [3]: > 100 µM
IC50 [4]: > 100 µM
IC50 [5]: > 100 µM
Semiquantitative relative binding activity, MCF-10A [6]: -
Semiquantitative relative binding activity, MDA-MB-231 [7]: ++++ (very strong binding (>40 cells per bead))
Cmax [8]: 1880 ± 670 ng/mL
T1/2 [8]: 566 ± 72.6 min
Tmax [8]: 10 min
peptide remaining after 24 h in vivo [8]: more than 25%
IC50 [9]: > 100 µM
IC50 [10]: > 100 µM
